Results: patent US20030180294A1, “Methods of extending corneal graft survival” (priority 2002, published 2003)

Legend:
[1] = test system: corneal transplants in the Lewis/Wistar-Furth combination; assay: rat model of keratoplasty, corneal graft survival; type: in vivo; conditions: Lewis cornea to Wistar-Furth recipient, systemic 0.5 to 200 mg/kg/day or eye drop 0.05% to 5.0%, versus vehicle (rejection on average at day 30)
Description: Grafts are prepared and transferred according to the well-characterized rat model of keratoplasty with transplantation of corneas from Lewis strain rats to Wistar-Furth recipients (Callanan et al., Transplantation 45:437-443 (1988)). Each treatment group administered vehicle or test agent includes nine to fourteen rats. Grafts are observed clinically and scored three times per week for signs of rejection according to the criteria in Callanan et al., supra, 1988. Day 60 following surgery represents a two-fold prolongation in the expected mean survival time for corneal transplants in the Lewis/Wistar-Furth combination and therefore is selected as an advantageous time for terminating treatment. Rats bearing grafts not rejected by day 60 are observed for an additional 14 days to determine if the host's immune system has been tolerized. At this time, 80% of the grafted eyes are snap frozen for cryostat sectioning, and the remaining 20% of the eyes are fixed in formalin for H & E staining.
The VEGFR-3 tyrosine kinase inhibitor MAE87, MAE106 or MAZ51 is administered systemically at various concentrations, ranging from 0.5 to 200 mg/kg/day. In other animals, the compound is administered as an eye drop solution in various concentrations ranging from 0.05% to 5.0% and administered as various frequencies (once per day, two times per day and three times per day).

VEGFR-3 = VEGFR-3 (Homo sapiens, UniProt P35916); conditions: VEGF-C and VEGF-D induced; cited from earlier work
VEGFR-3, sequence (P35916 25-1363, species assumed): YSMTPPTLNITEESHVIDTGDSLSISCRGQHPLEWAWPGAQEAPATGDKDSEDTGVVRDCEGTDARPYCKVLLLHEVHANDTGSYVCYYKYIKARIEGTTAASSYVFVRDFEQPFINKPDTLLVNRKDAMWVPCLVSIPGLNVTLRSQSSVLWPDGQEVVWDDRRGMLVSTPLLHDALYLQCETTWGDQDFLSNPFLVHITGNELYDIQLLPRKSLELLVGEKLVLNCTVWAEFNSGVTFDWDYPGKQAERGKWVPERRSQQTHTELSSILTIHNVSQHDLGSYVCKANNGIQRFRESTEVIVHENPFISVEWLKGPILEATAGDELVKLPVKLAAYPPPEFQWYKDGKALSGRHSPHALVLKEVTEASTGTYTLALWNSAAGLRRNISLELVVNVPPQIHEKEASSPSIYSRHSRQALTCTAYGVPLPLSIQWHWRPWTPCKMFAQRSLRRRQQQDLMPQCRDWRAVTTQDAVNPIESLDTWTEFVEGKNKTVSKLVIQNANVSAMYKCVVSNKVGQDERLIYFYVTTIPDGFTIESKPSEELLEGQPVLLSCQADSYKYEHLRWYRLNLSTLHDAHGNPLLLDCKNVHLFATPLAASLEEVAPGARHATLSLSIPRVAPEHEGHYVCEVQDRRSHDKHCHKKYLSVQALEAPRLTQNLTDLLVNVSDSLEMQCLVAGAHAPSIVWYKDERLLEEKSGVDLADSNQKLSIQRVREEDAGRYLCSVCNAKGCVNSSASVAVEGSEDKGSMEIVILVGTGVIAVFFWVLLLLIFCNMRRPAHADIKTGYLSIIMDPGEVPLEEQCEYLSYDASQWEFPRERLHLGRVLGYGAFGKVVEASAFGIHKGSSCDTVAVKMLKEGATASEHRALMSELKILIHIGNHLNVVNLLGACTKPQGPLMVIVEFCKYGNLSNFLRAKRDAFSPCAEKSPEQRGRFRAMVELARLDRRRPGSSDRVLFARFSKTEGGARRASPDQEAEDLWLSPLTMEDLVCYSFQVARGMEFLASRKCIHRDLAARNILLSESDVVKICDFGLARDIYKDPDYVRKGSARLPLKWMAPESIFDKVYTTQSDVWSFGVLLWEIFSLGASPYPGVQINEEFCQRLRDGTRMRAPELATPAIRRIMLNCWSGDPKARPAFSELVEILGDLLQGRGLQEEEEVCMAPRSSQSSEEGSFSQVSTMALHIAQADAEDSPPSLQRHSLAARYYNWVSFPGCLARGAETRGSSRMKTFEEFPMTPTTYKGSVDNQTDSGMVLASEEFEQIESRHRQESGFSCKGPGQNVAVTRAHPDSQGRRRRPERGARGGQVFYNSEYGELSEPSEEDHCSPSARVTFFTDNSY

SMILES	mean graft survival (delay in evidence of graft rejection) [1]	VEGFR-3 kinase activity versus VEGFR-2 (specificity) (VEGFR-3)
O=C1Nc2ccccc2C1=Cc1ccc(O)cc1O [MAE87, 3(2,4-dihydroxy-benzylidene)-1,3-dihydro-indol-2-one]	increased mean graft survival	
COc1ccc(C=C2C(=O)Nc3ccccc32)cc1F [MAE106, 3-(3-fluoro-4-methoxy-benzylidene)-1,3-dihydro-indol-2-one]	increased mean graft survival	differentially block VEGF-C and VEGF-D induced VEGFR-3 kinase activity compared to that of VEGFR-2
CN(C)c1ccc(C=C2C(=O)Nc3ccccc32)c2ccccc12 [MAZ51, 3-(4-dimethylamino-naphthalen-1-ylmethylene)-1,3-dihydro-indol-2-one]	increased mean graft survival	differentially block VEGF-C and VEGF-D induced VEGFR-3 kinase activity compared to that of VEGFR-2
